Measurements taken from the CheMixHub viscosity set.
± gives the uncertainty stated by the source.

Experiment: xn = mol fraction of the nth substance listed

CCOC(C)=O + CCCCCCO
viscosity [mPa·s], 101.33 kPa
Conditions	x1 = 0.1142	x1 = 0.2247	x1 = 0.332	x1 = 0.436	x1 = 0.537	x1 = 0.635	x1 = 0.7301	x1 = 0.8227	x1 = 0.9125
298.15 K	2.832 ± 0.13	2.006 ± 0.092	1.472 ± 0.07	1.128 ± 0.055	0.9 ± 0.045	0.736 ± 0.038	0.618 ± 0.033	0.539 ± 0.03	0.47 ± 0.027
303.15 K	2.481 ± 0.11	1.775 ± 0.083	1.334 ± 0.064	1.027 ± 0.051	0.824 ± 0.042	0.692 ± 0.036	0.574 ± 0.031	0.506 ± 0.028	0.448 ± 0.026
308.15 K	2.181 ± 0.1	1.582 ± 0.074	1.2 ± 0.058	0.942 ± 0.047	0.76 ± 0.039	0.591 ± 0.032	0.541 ± 0.03	0.475 ± 0.027	0.419 ± 0.024

CCOc1ccccc1 + CCCCCCO
viscosity [mPa·s], 101.3 kPa
Conditions	x1 = 0.1009	x1 = 0.1998	x1 = 0.2997	x1 = 0.3996	x1 = 0.5031	x1 = 0.6005	x1 = 0.7003	x1 = 0.8012	x1 = 0.9001
293.15 K	4.148 ± 0.095	3.239 ± 0.077	2.559 ± 0.064	2.075 ± 0.055	1.745 ± 0.049	1.557 ± 0.045	1.458 ± 0.043	1.407 ± 0.042	1.38 ± 0.042
298.15 K	3.444 ± 0.081	2.764 ± 0.068	2.253 ± 0.058	1.872 ± 0.051	1.586 ± 0.046	1.392 ± 0.042	1.293 ± 0.04	1.246 ± 0.039	1.237 ± 0.039
308.15 K	2.831 ± 0.07	2.252 ± 0.058	1.807 ± 0.05	1.482 ± 0.044	1.248 ± 0.039	1.103 ± 0.036	1.033 ± 0.035	1.001 ± 0.034	0.9927 ± 0.034
318.15 K	2.142 ± 0.056	1.72 ± 0.048	1.388 ± 0.042	1.153 ± 0.037	0.9975 ± 0.034	0.9133 ± 0.033	0.8619 ± 0.032	0.8367 ± 0.031	0.8214 ± 0.031

COC(=O)CC(C)=O + CCCCCCO
viscosity [mPa·s], 101.33 kPa
Conditions	x1 = 0.1036	x1 = 0.204	x1 = 0.3064	x1 = 0.4075	x1 = 0.5096	x1 = 0.6081	x1 = 0.7063	x1 = 0.806	x1 = 0.9023
298.15 K	3.185 ± 0.073	2.588 ± 0.06	2.204 ± 0.052	1.947 ± 0.046	1.749 ± 0.042	1.609 ± 0.039	1.521 ± 0.037	1.473 ± 0.036	1.478 ± 0.036
303.15 K	2.76 ± 0.064	2.257 ± 0.053	1.932 ± 0.046	1.72 ± 0.041	1.547 ± 0.037	1.442 ± 0.035	1.364 ± 0.033	1.33 ± 0.032	1.34 ± 0.033
308.15 K	2.409 ± 0.056	1.989 ± 0.047	1.711 ± 0.041	1.527 ± 0.037	1.387 ± 0.034	1.302 ± 0.032	1.238 ± 0.03	1.211 ± 0.03	1.222 ± 0.03

CCOC(C)=O + CCCCCO
viscosity [mPa·s], 101.33 kPa
Conditions	x1 = 0.1	x1 = 0.2	x1 = 0.3	x1 = 0.4001	x1 = 0.5001	x1 = 0.6036	x1 = 0.7001	x1 = 0.8001	x1 = 0.9
298.15 K	2.349 ± 0.11	1.693 ± 0.079	1.282 ± 0.061	1.011 ± 0.05	0.829 ± 0.042	–	0.6 ± 0.032	0.521 ± 0.029	0.472 ± 0.027
303.15 K	2.079 ± 0.095	1.53 ± 0.072	1.161 ± 0.056	0.924 ± 0.046	0.766 ± 0.039	0.644 ± 0.034	0.561 ± 0.031	0.486 ± 0.027	0.446 ± 0.026
308.15 K	1.843 ± 0.085	1.367 ± 0.065	1.053 ± 0.052	0.848 ± 0.043	0.681 ± 0.036	0.599 ± 0.032	0.525 ± 0.029	0.459 ± 0.026	0.392 ± 0.023

CCOc1ccccc1 + CCCCCO
viscosity [mPa·s], 101.3 kPa
Conditions	x1 = 0.0998	x1 = 0.1989	x1 = 0.3012	x1 = 0.3999	x1 = 0.5004	x1 = 0.6001	x1 = 0.7013	x1 = 0.7997	x1 = 0.9021
293.15 K	3.281 ± 0.078	2.682 ± 0.067	2.196 ± 0.057	1.866 ± 0.051	1.631 ± 0.046	1.494 ± 0.044	1.42 ± 0.043	1.379 ± 0.042	1.371 ± 0.042
298.15 K	2.882 ± 0.071	2.372 ± 0.061	1.953 ± 0.053	1.646 ± 0.047	1.423 ± 0.043	1.299 ± 0.04	1.245 ± 0.039	1.232 ± 0.039	1.228 ± 0.039
308.15 K	2.152 ± 0.056	1.785 ± 0.049	1.486 ± 0.044	1.256 ± 0.039	1.121 ± 0.037	1.032 ± 0.035	0.9978 ± 0.034	0.9914 ± 0.034	0.9892 ± 0.034
318.15 K	1.691 ± 0.048	1.381 ± 0.042	1.155 ± 0.037	1.01 ± 0.035	0.9175 ± 0.033	0.8405 ± 0.031	0.8318 ± 0.031	0.8317 ± 0.031	0.8269 ± 0.031

COC(=O)CC(C)=O + CCCCCO
viscosity [mPa·s], 101.33 kPa
Conditions	x1 = 0.1031	x1 = 0.2056	x1 = 0.3072	x1 = 0.4083	x1 = 0.5091	x1 = 0.6099	x1 = 0.7075	x1 = 0.8063	x1 = 0.9019
298.15 K	2.467 ± 0.058	2.053 ± 0.049	1.796 ± 0.043	1.637 ± 0.04	1.52 ± 0.037	1.439 ± 0.035	1.408 ± 0.034	1.408 ± 0.034	1.449 ± 0.035
303.15 K	2.156 ± 0.051	1.809 ± 0.043	1.588 ± 0.038	1.453 ± 0.035	1.356 ± 0.033	1.294 ± 0.032	1.268 ± 0.031	1.275 ± 0.031	1.313 ± 0.032
308.15 K	1.903 ± 0.046	1.606 ± 0.039	1.419 ± 0.035	1.3 ± 0.032	1.223 ± 0.03	1.175 ± 0.029	1.156 ± 0.029	1.164 ± 0.029	1.201 ± 0.03

CCOC(C)=O + CCCCO
298.15 K
Conditions	viscosity [mPa·s]
101 kPa, x2 = 0.12	0.48 ± 0.005
101 kPa, x2 = 0.23	0.51 ± 0.005
101 kPa, x2 = 0.34	0.578 ± 0.006
101 kPa, x2 = 0.44	0.648 ± 0.007
101 kPa, x2 = 0.54	0.79 ± 0.008
101 kPa, x2 = 0.64	0.987 ± 0.01
101 kPa, x2 = 0.73	1.165 ± 0.011
101 kPa, x2 = 0.83	1.425 ± 0.014
101 kPa, x2 = 0.91	1.815 ± 0.018
101.33 kPa, x2 = 0.1338	0.468 ± 0.004
101.33 kPa, x2 = 0.2522	0.517 ± 0.004
101.33 kPa, x2 = 0.3724	0.599 ± 0.005
101.33 kPa, x2 = 0.4809	0.691 ± 0.006
101.33 kPa, x2 = 0.5952	0.838 ± 0.007
101.33 kPa, x2 = 0.7033	1.041 ± 0.008
101.33 kPa, x2 = 0.801	1.331 ± 0.01
101.33 kPa, x2 = 0.8918	1.741 ± 0.013

COC(=O)CC(C)=O + CCCCO
viscosity [mPa·s], 101.33 kPa
Conditions	x1 = 0.1022	x1 = 0.2039	x1 = 0.306	x1 = 0.4081	x1 = 0.511	x1 = 0.6074	x1 = 0.7044	x1 = 0.8051	x1 = 0.9038
298.15 K	1.886 ± 0.045	1.628 ± 0.039	1.465 ± 0.036	1.378 ± 0.034	1.328 ± 0.033	1.311 ± 0.032	1.321 ± 0.033	1.368 ± 0.034	1.436 ± 0.035
303.15 K	1.669 ± 0.04	1.447 ± 0.035	1.308 ± 0.032	1.235 ± 0.031	1.197 ± 0.03	1.183 ± 0.029	1.197 ± 0.03	1.211 ± 0.03	1.302 ± 0.032
308.15 K	1.487 ± 0.036	1.301 ± 0.032	1.195 ± 0.03	1.118 ± 0.028	1.09 ± 0.027	1.08 ± 0.027	1.093 ± 0.027	1.131 ± 0.028	1.19 ± 0.03

OCC(O)CO + CCCCO
viscosity [mPa·s], 101.33 kPa
Conditions	x1 = 0.1003	x1 = 0.1997	x1 = 0.3003	x1 = 0.4007	x1 = 0.4996	x1 = 0.5995	x1 = 0.6994	x1 = 0.8004	x1 = 0.8999
298.15 K	4.05 ± 0.41	6.403 ± 0.65	10.09 ± 1	18.38 ± 1.9	37.92 ± 4	83.21 ± 8.8	180.7 ± 19	338.3 ± 36	541.7 ± 59
308.15 K	3.014 ± 0.31	4.518 ± 0.46	6.896 ± 0.71	11.9 ± 1.2	21.63 ± 2.3	44.15 ± 4.6	82.38 ± 8.5	144.5 ± 15	231.5 ± 24
318.15 K	2.324 ± 0.24	3.356 ± 0.34	4.9 ± 0.5	8.136 ± 0.83	13.77 ± 1.4	24.56 ± 2.5	41.13 ± 4.2	68.13 ± 7	105.3 ± 11

COC(=O)CC(C)=O + CCCCOC(C)=O
viscosity [mPa·s], 101.33 kPa
Conditions	x1 = 0.1019	x1 = 0.2013	x1 = 0.3015	x1 = 0.4035	x1 = 0.5006	x1 = 0.6004	x1 = 0.7005	x1 = 0.8087	x1 = 0.8989
298.15 K	0.719 ± 0.01	0.768 ± 0.011	0.826 ± 0.011	0.895 ± 0.012	0.969 ± 0.013	1.055 ± 0.014	1.163 ± 0.015	1.289 ± 0.017	1.407 ± 0.018
303.15 K	0.672 ± 0.009	0.716 ± 0.01	0.768 ± 0.011	0.83 ± 0.011	0.896 ± 0.012	0.973 ± 0.013	1.068 ± 0.014	1.181 ± 0.015	1.284 ± 0.017
308.15 K	0.629 ± 0.009	0.669 ± 0.009	0.717 ± 0.01	0.774 ± 0.011	0.832 ± 0.011	0.901 ± 0.012	0.987 ± 0.013	1.085 ± 0.014	1.179 ± 0.015

COc1ccc(C=O)cc1 + CCCCOCCO
viscosity [mPa·s], 101 kPa
Conditions	x1 = 0.1088	x1 = 0.2154	x1 = 0.3201	x1 = 0.4227	x1 = 0.5234	x1 = 0.6223	x1 = 0.7193	x1 = 0.8146	x1 = 0.9081
303.15 K	2.197 ± 0.22	2.089 ± 0.21	2.055 ± 0.21	2.09 ± 0.21	2.191 ± 0.22	2.354 ± 0.24	2.575 ± 0.26	2.852 ± 0.29	3.18 ± 0.32
308.15 K	2.107 ± 0.21	2.006 ± 0.2	1.963 ± 0.2	1.973 ± 0.2	2.035 ± 0.2	2.145 ± 0.21	2.3 ± 0.23	2.499 ± 0.25	2.738 ± 0.27
313.15 K	1.984 ± 0.2	1.912 ± 0.19	1.881 ± 0.19	1.888 ± 0.19	1.932 ± 0.19	2.01 ± 0.2	2.121 ± 0.21	2.262 ± 0.23	2.432 ± 0.24
318.15 K	1.836 ± 0.18	1.786 ± 0.18	1.766 ± 0.18	1.773 ± 0.18	1.806 ± 0.18	1.865 ± 0.19	1.947 ± 0.2	2.051 ± 0.21	2.175 ± 0.22

CCOC(C)=O + CCCO
viscosity [mPa·s], 101 kPa
Conditions	298.15 K	313.15 K
x1 = 0.046	1.597 ± 0.015	1.158 ± 0.011
x1 = 0.0998	1.337 ± 0.012	0.987 ± 0.009
x1 = 0.1992	1.007 ± 0.009	–
x1 = 0.2966	0.802 ± 0.008	–
x1 = 0.4052	0.694 ± 0.007	–
x1 = 0.5009	0.601 ± 0.006	–
x1 = 0.5421	0.576 ± 0.006	0.482 ± 0.005
x1 = 0.5948	0.558 ± 0.006	0.466 ± 0.005
x1 = 0.7034	0.509 ± 0.005	–
x1 = 0.7964	0.475 ± 0.005	–
x1 = 0.9033	0.448 ± 0.005	–
x1 = 0.9542	0.45 ± 0.005	–
